Source: US20060093617A1, “Peptides for inducing a CTL and/or HTL response to hepatitis C virus” (Innogenetics, N.V., priority 2004, published 2006)
Where a SMILES comes first, the peptide text is derived from it.

What follows are compounds tested against HLA-A02 (Homo sapiens, UniProt P04439, D140Y/D185E/D98H/E176V/E277Q/G131W/G231S/I119V/I121R/I166T/I218V/L300P/L318F/N151K/N90K/P208A/P217A/Q86G/Q94H/R138H/R169H/T345S) (assay: Competition binding assay using soluble HLA class I).

SMILES	Ki	IC50
CC(C)C[C@H](NC(=O)[C@@H](NC(=O)[C@H](CO)NC(=O)[C@@H](NC(=O)[C@@H](N)C(C)C)C(C)C)[C@@H](C)O)C(=O)N1CCC[C@H]1C(=O)N[C@@H](CCC(N)=O)C(=O)N[C@@H](C)C(=O)N[C@H](C(=O)O)C(C)C (H-VVSTLPQAV-OH; N-terminus and C-terminus assumed)	0.884 µM	
CC(C)C[C@H](NC(=O)[C@@H](N)Cc1ccc(O)cc1)C(=O)N[C@@H](Cc1ccccc1)C(=O)N[C@@H](CC(N)=O)C(=O)N[C@@H](Cc1c[nH]c2ccccc12)C(=O)N[C@@H](C)C(=O)N[C@H](C(=O)N[C@@H](CCCNC(=N)N)C(=O)N[C@H](C(=O)O)[C@@H](C)O)C(C)C (H-YLFNWAVRT-OH; N-terminus and C-terminus assumed)	0.029 µM	0.029 µM
CC(C)C[C@H](NC(=O)[C@H](C)NC(=O)[C@H](CC(C)C)NC(=O)[C@H](CC(C)C)NC(=O)[C@H](CC(C)C)NC(=O)[C@H](CC(C)C)NC(=O)[C@H](CC(C)C)NC(=O)[C@H](CC(C)C)NC(=O)[C@@H]1CCCN1)C(=O)O [PLLLLLLAL] (H-PLLLLLLAL-OH)	6.55 µM	
CC[C@H](C)[C@H](NC(=O)[C@H](Cc1ccc(O)cc1)NC(=O)[C@H](CC(C)C)NC(=O)[C@@H](N)CCCNC(=N)N)C(=O)NCC(=O)NCC(=O)N1CCC[C@H]1C(=O)N[C@@H](CC(C)C)C(=O)N[C@H](C(=O)O)[C@@H](C)O (H-RLYIGGPLT-OH)	0.536 µM	
CC[C@H](C)[C@H](N)C(=O)N[C@@H](CCSC)C(=O)N[C@@H](C)C(=O)N[C@@H](CCCCN)C(=O)N[C@@H](CC(N)=O)C(=O)N[C@@H](CCC(=O)O)C(=O)N[C@H](C(=O)N[C@@H](Cc1ccccc1)C(=O)N[C@@H](CS)C(=O)N[C@H](C(=O)O)C(C)C)C(C)C (H-IMAKNEVFCV-OH; N-terminus and C-terminus assumed)	0.199 µM	0.199 µM
CC(C)C[C@H](NC(=O)[C@@H](NC(=O)[C@@H](NC(=O)[C@H](CC(C)C)NC(=O)[C@@H](N)CCCNC(=N)N)C(C)C)C(C)C)C(=O)N[C@@H](C)C(=O)N[C@H](C(=O)N[C@@H](C)C(=O)N[C@H](C(=O)O)[C@@H](C)O)[C@@H](C)O	16.7 µM	
CSCC[C@H](N)C(=O)N[C@@H](C)C(=O)N[C@@H](CC(C)C)C(=O)N[C@@H](Cc1ccc(O)cc1)C(=O)N[C@@H](CC(=O)O)C(=O)N[C@H](C(=O)N[C@H](C(=O)N[C@@H](CO)C(=O)N[C@H](C(=O)O)[C@@H](C)O)C(C)C)C(C)C (H-MALYDVVST-OH; N-terminus and C-terminus assumed)	1.14 µM	
CC[C@H](C)[C@H](NC(=O)[C@@H](NC(=O)[C@@H](N)CC(N)=O)[C@@H](C)CC)C(=O)N[C@@H](CCSC)C(=O)N[C@@H](Cc1ccc(O)cc1)C(=O)N[C@@H](C)C(=O)N1CCC[C@H]1C(=O)N[C@H](C(=O)N[C@@H](CC(C)C)C(=O)O)[C@@H](C)O	0.07 µM	0.07 µM
CC(C)C[C@H](NC(=O)[C@@H]1CCCN1C(=O)[C@H](Cc1c[nH]c2ccccc12)NC(=O)[C@@H]1CCCN1C(=O)[C@H](Cc1ccc(O)cc1)NC(=O)CNC(=O)[C@@H]1CCCN1C(=O)[C@H](CCC(N)=O)NC(=O)[C@H](C)N)C(=O)O (H-AQPGYPWPL-OH; N-terminus and C-terminus assumed)	0.382 µM	
CC[C@H](C)[C@H](N)C(=O)N[C@@H](CCSC)C(=O)N[C@@H](C)C(=O)N[C@@H](CS)C(=O)N[C@@H](CCSC)C(=O)N[C@@H](CO)C(=O)N[C@@H](C)C(=O)N[C@@H](CC(=O)O)C(=O)N[C@@H](CC(C)C)C(=O)O (H-IMACMSADL-OH; N-terminus and C-terminus assumed)	0.066 µM	0.066 µM
CC[C@H](C)[C@H](NC(=O)[C@H](CS)NC(=O)CNC(=O)[C@H](CC(C)C)NC(=O)[C@H](CC(C)C)NC(=O)CN)C(=O)N[C@H](C(=O)N[C@H](C(=O)N[C@@H](CO)C(=O)N[C@@H](CC(C)C)C(=O)O)[C@@H](C)O)[C@@H](C)CC	0.026 µM	0.026 µM
CC(C)[C@H](NC(=O)[C@@H](NC(=O)[C@H](C)NC(=O)[C@H](CCC(N)=O)NC(=O)[C@@H](N)Cc1ccc(O)cc1)[C@@H](C)O)C(=O)N[C@@H](CS)C(=O)N[C@@H](C)C(=O)N[C@@H](CCCNC(=N)N)C(=O)N[C@@H](C)C(=O)O (H-YQATVCARA-OH)	0.02 µM	0.02 µM
CC(C)C[C@H](NC(=O)[C@H](CS)NC(=O)[C@H](CO)NC(=O)[C@H](CC(C)C)NC(=O)[C@H](CC(C)C)NC(=O)[C@H](C)NC(=O)[C@H](CC(C)C)NC(=O)[C@H](CC(C)C)NC(=O)[C@@H](N)Cc1ccccc1)C(=O)O	0.136 µM	0.136 µM
CC[C@H](C)[C@H](NC(=O)[C@@H](NC(=O)[C@H](CC(C)C)NC(=O)[C@H](CS)NC(=O)[C@H](CO)NC(=O)[C@H](CC(C)C)NC(=O)[C@@H](N)CC(C)C)[C@@H](C)O)C(=O)N1CCC[C@H]1C(=O)N[C@@H](C)C(=O)O	0.012 µM	0.012 µM
CC(C)C[C@H](NC(=O)[C@@H](NC(=O)[C@H](CC(C)C)NC(=O)[C@@H](NC(=O)[C@@H](N)CCCCN)C(C)C)C(C)C)C(=O)N[C@@H](CC(N)=O)C(=O)N1CCC[C@H]1C(=O)N[C@@H](CO)C(=O)N[C@H](C(=O)O)C(C)C (H-KVLVLNPSV-OH)	0.05 µM	0.05 µM
CC[C@H](C)[C@H](NC(=O)[C@H](Cc1c[nH]cn1)NC(=O)[C@@H](NC(=O)[C@H](CC(C)C)NC(=O)CNC(=O)[C@@H](NC(=O)[C@H](Cc1ccccc1)NC(=O)[C@@H](NC(=O)[C@@H](N)CO)C(C)C)[C@@H](C)O)[C@@H](C)O)C(=O)O	0.084 µM	

SMILES	Ki	IC50
CC(C)C[C@H](NC(=O)[C@H](Cc1ccccc1)NC(=O)[C@@H](NC(=O)[C@H](CO)NC(=O)CNC(=O)[C@H](CS)NC(=O)[C@H](CC(C)C)NC(=O)[C@@H](N)CC(=O)O)C(C)C)C(=O)N[C@H](C(=O)O)C(C)C (H-DLCGSVFLV-OH; N-terminus and C-terminus assumed)	0.789 µM	
CSCC[C@H](NC(=O)CN)C(=O)N[C@@H](Cc1ccccc1)C(=O)N[C@@H](CC(=O)O)C(=O)N[C@@H](CO)C(=O)N[C@@H](CO)C(=O)N[C@H](C(=O)N[C@@H](CC(C)C)C(=O)N[C@@H](CS)C(=O)O)C(C)C (H-GMFDSSVLC-OH)	0.071 µM	0.114 µM
CC[C@H](C)[C@H](NC(=O)[C@@H](N)Cc1ccc(O)cc1)C(=O)N1CCC[C@H]1C(=O)N[C@@H](CC(C)C)C(=O)N[C@H](C(=O)NCC(=O)N[C@@H](C)C(=O)N1CCC[C@H]1C(=O)N[C@@H](CC(C)C)C(=O)O)C(C)C	0.077 µM	0.337 µM
CC(C)C[C@H](NC(=O)[C@H](CCCNC(=N)N)NC(=O)[C@H](Cc1ccc(O)cc1)NC(=O)[C@@H]1CCCN1C(=O)[C@H](Cc1ccc(O)cc1)NC(=O)[C@H](CC(=O)O)NC(=O)[C@@H](NC(=O)[C@H](CC(C)C)NC(=O)[C@@H](N)CS)C(C)C)C(=O)O (H-CLVDYPYRL-OH; N-terminus and C-terminus assumed)	0.437 µM	0.437 µM
CC[C@H](C)[C@H](NC(=O)[C@@H](N)Cc1ccccc1)C(=O)N1CCC[C@H]1C(=O)N[C@H](C(=O)N[C@@H](CCC(=O)O)C(=O)N[C@@H](CO)C(=O)N[C@@H](CCSC)C(=O)N[C@@H](CCC(=O)O)C(=O)N[C@H](C(=O)O)[C@@H](C)O)C(C)C (H-FIPVESMET-OH)	0.934 µM	
CC(C)C[C@H](NC(=O)[C@@H](NC(=O)[C@@H](N)CC(C)C)C(C)C)C(=O)N[C@@H](CC(N)=O)C(=O)N1CCC[C@H]1C(=O)N[C@@H](CO)C(=O)N[C@H](C(=O)N[C@@H](C)C(=O)N[C@@H](C)C(=O)O)C(C)C	1.68 µM	
CC[C@H](C)[C@H](NC(=O)[C@H](CC(N)=O)NC(=O)CNC(=O)[C@H](CC(C)C)NC(=O)[C@@H](N)Cc1c[nH]c2ccccc12)C(=O)N[C@H](C(=O)N[C@@H](CCSC)C(=O)N[C@@H](Cc1ccc(O)cc1)C(=O)N[C@@H](C)C(=O)O)[C@@H](C)CC	0.0145 µM	
CC[C@H](C)[C@H](N)C(=O)N[C@@H](CCSC)C(=O)N[C@@H](Cc1ccc(O)cc1)C(=O)N[C@@H](C)C(=O)N1CCC[C@H]1C(=O)N[C@H](C(=O)N[C@@H](CC(C)C)C(=O)N[C@@H](Cc1c[nH]c2ccccc12)C(=O)N[C@@H](C)C(=O)O)[C@@H](C)O	0.046 µM	0.046 µM
CC(C)C[C@H](NC(=O)[C@H](C)NC(=O)[C@H](CC(C)C)NC(=O)[C@H](CC(C)C)NC(=O)[C@@H](N)Cc1ccccc1)C(=O)N[C@@H](CC(C)C)C(=O)N[C@@H](CO)C(=O)N[C@@H](CS)C(=O)N[C@@H](CC(C)C)C(=O)N[C@H](C(=O)O)[C@@H](C)O	0.132 µM	0.132 µM
CSCC[C@H](NC(=O)[C@@H](N)CO)C(=O)N[C@H](C(=O)NCC(=O)N[C@@H](CC(N)=O)C(=O)N[C@@H](Cc1c[nH]c2ccccc12)C(=O)N[C@@H](C)C(=O)N[C@@H](CCCCN)C(=O)N[C@H](C(=O)O)C(C)C)C(C)C (H-SMVGNWAKV-OH; N-terminus and C-terminus assumed)	0.158 µM	0.158 µM
CC(C)C[C@H](NC(=O)[C@H](CC(C)C)NC(=O)[C@H](Cc1c[nH]c2ccccc12)NC(=O)CNC(=O)[C@H](C)NC(=O)[C@H](Cc1c[nH]c2ccccc12)NC(=O)CNC(=O)[C@H](CC(C)C)NC(=O)CN)C(=O)O	0.027 µM	
CC(C)C[C@H](NC(=O)[C@H](CC(C)C)NC(=O)[C@@H]1CCCN1C(=O)[C@@H](NC(=O)[C@@H]1CCCN1C(=O)CNC(=O)[C@H](Cc1c[nH]cn1)NC(=O)[C@H](CC(C)C)NC(=O)[C@@H](N)[C@@H](C)O)[C@@H](C)O)C(=O)O	0.068 µM	0.068 µM
CC[C@H](C)[C@H](NC(=O)[C@H](CO)NC(=O)[C@H](Cc1ccccc1)NC(=O)[C@H](CO)NC(=O)[C@H](CS)NC(=O)CNC(=O)[C@@H]1CCCN1C(=O)[C@H](CC(C)C)NC(=O)[C@@H](N)CC(N)=O)C(=O)O (H-NLPGCSFSI-OH)	0.07 µM	0.083 µM
CC[C@H](C)[C@H](NC(=O)[C@@H](N)CCC(N)=O)C(=O)N[C@H](C(=O)NCC(=O)NCC(=O)N[C@H](C(=O)N[C@@H](Cc1ccc(O)cc1)C(=O)N[C@@H](CC(C)C)C(=O)N[C@@H](CC(C)C)C(=O)O)C(C)C)C(C)C		0.228 µM
CC[C@H](C)[C@H](NC(=O)[C@H](Cc1c[nH]cn1)NC(=O)[C@@H](NC(=O)[C@H](CC(C)C)NC(=O)CNC(=O)[C@@H](NC(=O)[C@H](Cc1ccccc1)NC(=O)[C@@H](NC(=O)[C@@H](N)CO)C(C)C)[C@@H](C)O)[C@@H](C)CC)C(=O)O (H-SVFTGLIHI-OH)		0.101 µM
